Reference: ChEMBL document CHEMBL5380795, “Design, Synthesis, and Bioactivity Investigation of Cyclic Lipopeptide Antibiotics Containing Eight to Nine Amino Acids” (J Med Chem, 2023)
Converted amounts (≈) assume the structure as drawn. Bridge positions count the residues as written; N and C are the ends. Square brackets hold non-standard residues; d marks the D form. Peptide text beside a SMILES is read from it. * marks the point of attachment. X1 = CC[C@H](C)CCCCC(=O)*; Dab = NCC[C@H](N)C(=O)O

Columns and labels:
[1] = Selectivity index, ratio of IC50 for cytotoxicity against human HK-2 cells to MIC for antibacterial activity against Escherichia coli ATCC BAA-2523; format: toxicity, cell-based
[2] = Cytotoxicity against human HK-2 cells assessed as inhibition of cell growth incubated for 72 hrs by CCK-8 assay; format: toxicity, cell-based
Pseudomonas aeruginosa [3] = test: Antibacterial activity against carbapenem resistant Pseudomonas aeruginosa clinical isolate 19-3 assessed as inhibition of bacterial growth incubated for 18 to 24 hrs by broth microdilution method; format: functional; details: time 18-24 hrs
Staphylococcus aureus [4] = test: Antibacterial activity against methicillin resistant Staphylococcus aureus ATCC 33591 assessed as inhibition of bacterial growth incubated for 18 to 24 hrs by broth microdilution method; format: functional; details: time 18-24 hrs
Escherichia coli [5] = test: Antibacterial activity against KPC producing Escherichia coli ATCC BAA-2340 assessed as inhibition of bacterial growth incubated for 18 to 24 hrs by broth microdilution method; format: functional; details: time 18-24 hrs
Acinetobacter baumannii [6] = test: Antibacterial activity against carbapenem resistant Acinetobacter baumannii clinical isolate 19-8 assessed as inhibition of bacterial growth incubated for 18 to 24 hrs by broth microdilution method; format: functional; details: time 18-24 hrs
Escherichia coli [7] = test: Antibacterial activity against Escherichia coli NCTC 13353 assessed as inhibition of bacterial growth incubated for 18 to 24 hrs by broth microdilution method; format: functional; details: time 18-24 hrs
[8] = tested on: Staphylococcus epidermidis; test: Antibacterial activity against methicillin resistant Staphylococcus epidermidis clinical isolate 19-5 assessed as inhibition of bacterial growth incubated for 18 to 24 hrs by broth microdilution method; format: functional; details: time 18-24 hrs
Klebsiella pneumoniae [9] = test: Antibacterial activity against KPC producing Klebsiella pneumoniae ATCC BAA-1705 assessed as inhibition of bacterial growth incubated for 18 to 24 hrs by broth microdilution method; format: functional; details: time 18-24 hrs
Escherichia coli [10] = test: Antibacterial activity against Escherichia coli ATCC BAA-2523 assessed as inhibition of bacterial growth incubated for 18 to 24 hrs by broth microdilution method; format: functional; details: time 18-24 hrs
Klebsiella pneumoniae [11] = test: Antibacterial activity against carbapenem resistant Klebsiella pneumoniae clinical isolate 19-17 assessed as inhibition of bacterial growth incubated for 18 to 24 hrs by broth microdilution method; format: functional; details: time 18-24 hrs
Acinetobacter baumannii [12] = test: Antibacterial activity against oxacillinase-27 producing Acinetobacter baumannii NCTC 13304 assessed as inhibition of bacterial growth incubated for 18 to 24 hrs by broth microdilution method; format: functional; details: time 18-24 hrs
Staphylococcus aureus [13] = test: Antibacterial activity against Staphylococcus aureus ATCC 29213 assessed as inhibition of bacterial growth incubated for 18 to 24 hrs by broth microdilution method; format: functional; details: time 18-24 hrs
Pseudomonas aeruginosa [14] = test: Antibacterial activity against Pseudomonas aeruginosa ATCC 27853 assessed as inhibition of bacterial growth incubated for 18 to 24 hrs by broth microdilution method; format: functional; details: time 18-24 hrs
Pseudomonas aeruginosa [15] = test: Antibacterial activity against carbapenem resistant Pseudomonas aeruginosa clinical isolate 17-1 assessed as inhibition of bacterial growth incubated for 18 to 24 hrs by broth microdilution method; format: functional; details: time 18-24 hrs
Pseudomonas aeruginosa [16] = test: Antibacterial activity against Pseudomonas aeruginosa clinical isolate 19-1 assessed as inhibition of bacterial growth incubated for 18 to 24 hrs by broth microdilution method; format: functional; details: time 18-24 hrs
[17] = tested on: Staphylococcus epidermidis; test: Antibacterial activity against methicillin resistant Staphylococcus epidermidis clinical isolate 19-6 assessed as inhibition of bacterial growth incubated for 18 to 24 hrs by broth microdilution method; format: functional; details: time 18-24 hrs
Klebsiella pneumoniae [18] = test: Antibacterial activity against carbapenem resistant Klebsiella pneumoniae clinical isolate 19-15 assessed as inhibition of bacterial growth incubated for 18 to 24 hrs by broth microdilution method; format: functional; details: time 18-24 hrs
Escherichia coli [19] = test: Antibacterial activity against Escherichia coli clinical isolate 19-2 assessed as inhibition of bacterial growth incubated for 18 to 24 hrs by broth microdilution method; format: functional; details: time 18-24 hrs

Row | SMILES | selectivity ratio [1] | IC50 at 72 h [2] [µg/mL] | MIC (Pseudomonas aeruginosa [3]) [µg/mL] | MIC (Staphylococcus aureus [4]) [µg/mL] | MIC (Escherichia coli [5]) [µg/mL] | MIC (Acinetobacter baumannii [6]) [µg/mL] | MIC (Escherichia coli [7]) [µg/mL] | MIC [8] [µg/mL] | MIC (Klebsiella pneumoniae [9]) [µg/mL] | MIC (Escherichia coli [10]) [µg/mL] | MIC (Klebsiella pneumoniae [11]) [µg/mL] | MIC (Acinetobacter baumannii [12]) [µg/mL] | MIC (Staphylococcus aureus [13]) [µg/mL] | MIC (Pseudomonas aeruginosa [14]) [µg/mL] | MIC (Pseudomonas aeruginosa [15]) [µg/mL] | MIC (Pseudomonas aeruginosa [16]) [µg/mL] | MIC [17] [µg/mL] | MIC (Klebsiella pneumoniae [18]) [µg/mL] | MIC (Escherichia coli [19]) [µg/mL]
1 | CC[C@H](C)CCCCC(=O)N[C@@H](CCN)C(=O)N[C@H](C(=O)N[C@@H](CCN)C(=O)N[C@H]1CCNC(=O)[C@H]([C@@H](C)O)NC(=O)[C@H](CCN)NC(=O)[C@H](CCN)NC(=O)[C@H](CC(C)C)NC(=O)[C@@H](Cc2ccccc2)NC(=O)[C@H](CCN)NC1=O)[C@@H](C)O (X1-[Dab]T[Dab][Dab][Dab][dF]L[Dab][Dab]T; lactam 4-C) | > 932 | 55.9 (≈ 46.4 µM) | – | – | – | – | – | – | – | – | – | – | – | – | – | – | – | – | –
2 | CCCCCCC[C@@H](O)CC(=O)N[C@H](CO)C(=O)N[C@H](CCN)C(=O)N[C@H]1CCNC(=O)[C@H](CC(C)C)NC(=O)[C@H](CCN)NC(=O)[C@H](CCN)NC(=O)[C@H](Cc2ccccc2)NC(=O)[C@@H](CC(C)C)NC(=O)[C@H](CCN)NC1=O | 13.9 | 55.4 (≈ 49 µM) | 2 (≈ 1.77 µM) | 64 (≈ 56.6 µM) | 4 (≈ 3.54 µM) | 16 (≈ 14.1 µM) | 16 (≈ 14.1 µM) | 2 (≈ 1.77 µM) | 2 (≈ 1.77 µM) | 4 (≈ 3.54 µM) | 8 (≈ 7.07 µM) | 8 (≈ 7.07 µM) | 64 (≈ 56.6 µM) | 2 (≈ 1.77 µM) | 2 (≈ 1.77 µM) | 8 (≈ 7.07 µM) | 8 (≈ 7.07 µM) | 4 (≈ 3.54 µM) | 16 (≈ 14.1 µM)
3 | CCCCCCCCCC(=O)N[C@H](CCN)C(=O)N[C@H]1CCNC(=O)[C@H]([C@@H](C)O)NC(=O)[C@H](CCN)NC(=O)[C@H](CCN)NC(=O)[C@H](CC(C)C)NC(=O)[C@H](CC(C)C)NC(=O)[C@H](CCN)NC1=O | < 0.9 | 58.7 (≈ 59.8 µM) | > 64 | > 64 | 64 (≈ 65.2 µM) | > 64 | > 64 | 4 (≈ 4.07 µM) | > 64 | > 64 | > 64 | > 64 | > 64 | > 64 | > 64 | > 64 | 16 (≈ 16.3 µM) | > 64 | > 64
4 | CCCCCCCCCC(=O)N[C@@H](C(=O)N[C@H]1CCNC(=O)[C@H]([C@@H](C)O)NC(=O)[C@H](CCN)NC(=O)[C@H](CCN)NC(=O)[C@H](CC(C)C)NC(=O)[C@@H](CC(C)C)NC(=O)[C@H](CCN)NC1=O)[C@H](C)O | 3.8 | 240 (≈ 244 µM) | 32 (≈ 32.5 µM) | > 64 | 64 (≈ 65.1 µM) | > 64 | 64 (≈ 65.1 µM) | 16 (≈ 16.3 µM) | 32 (≈ 32.5 µM) | 64 (≈ 65.1 µM) | 64 (≈ 65.1 µM) | 64 (≈ 65.1 µM) | > 64 | 8 (≈ 8.14 µM) | 32 (≈ 32.5 µM) | 16 (≈ 16.3 µM) | 64 (≈ 65.1 µM) | 64 (≈ 65.1 µM) | 32 (≈ 32.5 µM)
5 | CCCCCCCCCC(=O)N[C@H](CCN)C(=O)N[C@H]1CNC(=O)[C@H]([C@@H](C)O)NC(=O)[C@H](CCN)NC(=O)[C@H](CCN)NC(=O)[C@H](CC(C)C)NC(=O)[C@@H](CC(C)C)NC(=O)[C@H](CCN)NC1=O | – | 68.6 (≈ 70.8 µM) | > 64 | > 64 | > 64 | > 64 | > 64 | 1 (≈ 1.03 µM) | > 64 | < 64 | > 64 | > 64 | > 64 | > 64 | > 64 | > 64 | 32 (≈ 33 µM) | > 64 | > 64
6 | CCCCCCCCCC(=O)N[C@H](CCN)C(=O)N[C@H]1CCNC(=O)[C@H]([C@@H](C)O)NC(=O)[C@H](CCN)NC(=O)[C@H](CCN)NC(=O)[C@H](CC(=O)O)NC(=O)[C@@H](CC(C)C)NC(=O)[C@H](CCN)NC1=O | – | > 500 | > 64 | > 64 | > 64 | > 64 | > 64 | > 64 | > 64 | > 64 | > 64 | > 64 | > 64 | > 64 | > 64 | > 64 | > 64 | > 64 | > 64
7 | CCCCCCCCCC(=O)N[C@H](CCN)C(=O)N[C@H]1CCNC(=O)[C@H]([C@@H](C)O)NC(=O)[C@H](CCN)NC(=O)[C@H](CCN)NC(=O)[C@H](CC(C)C)NC(=O)[C@@H](Cc2ccc(C(C)(C)C)cc2)NC(=O)[C@H](CCN)NC1=O | 15.9 | 15.9 (≈ 14.8 µM) | 2 (≈ 1.86 µM) | 4 (≈ 3.73 µM) | 2 (≈ 1.86 µM) | 16 (≈ 14.9 µM) | 4 (≈ 3.73 µM) | 0.5 (≈ 0.466 µM) | 2 (≈ 1.86 µM) | 1 (≈ 0.932 µM) | 2 (≈ 1.86 µM) | 16 (≈ 14.9 µM) | 4 (≈ 3.73 µM) | 2 (≈ 1.86 µM) | 4 (≈ 3.73 µM) | 4 (≈ 3.73 µM) | 2 (≈ 1.86 µM) | 4 (≈ 3.73 µM) | 2 (≈ 1.86 µM)
8 | CCCCCCCCCC(=O)N[C@H](CCN)C(=O)N[C@H]1CCNC(=O)[C@H]([C@@H](C)O)NC(=O)[C@H](CCN)NC(=O)[C@H](CCN)NC(=O)[C@H](CC(C)C)NC(=O)[C@@H](CC(C)C)NC(=O)[C@H](CCCCN)NC1=O | < 3.1 | 196 (≈ 193 µM) | > 64 | > 64 | > 64 | > 64 | > 64 | 8 (≈ 7.92 µM) | > 64 | > 64 | > 64 | > 64 | > 64 | > 64 | > 64 | > 64 | 32 (≈ 31.7 µM) | > 64 | > 64
9 | CCCCCCC[C@H](O)CC(=O)N[C@H](CCN)C(=O)N[C@H]1CCNC(=O)[C@H](CC(C)C)NC(=O)[C@H](CCN)NC(=O)[C@H](CCN)NC(=O)[C@H](CC(C)C)NC(=O)[C@@H](CC(C)C)NC(=O)[C@H](CCN)NC1=O | 19.4 | 77.6 (≈ 76.8 µM) | 4 (≈ 3.96 µM) | > 64 | 2 (≈ 1.98 µM) | 2 (≈ 1.98 µM) | 8 (≈ 7.92 µM) | 2 (≈ 1.98 µM) | 4 (≈ 3.96 µM) | 4 (≈ 3.96 µM) | 8 (≈ 7.92 µM) | 1 (≈ 0.99 µM) | > 64 | 1 (≈ 0.99 µM) | 2 (≈ 1.98 µM) | 2 (≈ 1.98 µM) | 16 (≈ 15.8 µM) | 8 (≈ 7.92 µM) | 8 (≈ 7.92 µM)
10 | CCCCCCCCCC(=O)N[C@H](CCN)C(=O)N[C@H]1CCNC(=O)[C@H](CO)NC(=O)[C@H](CCN)NC(=O)[C@H](CCN)NC(=O)[C@H](Cc2ccccc2)NC(=O)[C@@H](CC(C)C)NC(=O)[C@H](CCN)NC1=O | 9.1 | 146 (≈ 145 µM) | 16 (≈ 16 µM) | > 64 | 16 (≈ 16 µM) | > 64 | 32 (≈ 31.9 µM) | 4 (≈ 3.99 µM) | 8 (≈ 7.98 µM) | 16 (≈ 16 µM) | 64 (≈ 63.9 µM) | > 64 | 64 (≈ 63.9 µM) | 64 (≈ 63.9 µM) | 64 (≈ 63.9 µM) | 16 (≈ 16 µM) | 2 (≈ 2 µM) | 32 (≈ 31.9 µM) | 16 (≈ 16 µM)
